The text below walks through data of paper PMC10648875 (Antimicrobial Agents and Chemotherapy, 2023).

In brackets after ≈: the same amount, converted by molar mass.

Assay [1] concerns Escherichia coli NCTC 13353 (ECM7514), CTX-M-15. Kind of assay: MIC, reference strain. Type of assay: cell-based. To be noted: Escherichia coli, NCTC13353; CTX-M-15; BLI at the fixed concentration in brackets; read-out: MIC. How it is done: (§1) Other BL/BLI combinations were tested at their recommended BLI concentrations. MIC values for the partner antibiotics and BLIs alone were also determined (Table 2; Table S1). All investigational and marketed BLIs enhanced the potency of antibiotics according to their spectrum of inhibition. MIC values against CLSI-approved QC strains were within acceptable ranges for drugs and combinations tested (Table 3).
(§2) Isolates were tested for antimicrobial susceptibility using the broth microdilution methodology per CLSI M07 (2018) guidelines ([40]). JMI Laboratories produced frozen-form 96-well panels with cation-adjusted Mueller-Hinton broth as the testing medium. Current CLSI quality assurance practices were followed when performing the susceptibility tests. MIC values were validated by concurrently testing the following CLSI-recommended ([27]) QC reference strains: E. coli NCTC 13353 (CTX-M-15), Klebsiella pneumoniae ATCC BAA-2814 (KPC-3), Klebsiella pneumoniae ATCC BAA-1705 (KPC-2), and K. pneumoniae ATCC 700603 (SHV-18). The inoculum density during susceptibility testing was monitored by bacterial colony counts. Where applicable, QC ranges for tested reference strains were those approved or published by the CLSI ([27]). Meropenem was purchased from Carbosynth; ceftolozane was synthesized at Acme Bioscience, Palo Alto, CA, USA; all other antibiotics were from Sigma Aldrich. Xeruborbactam was synthesized at Qpex Biopharma, San Diego, CA, USA. Avibactam was purchased from eNovation, Chemicals LLC, Bridgewater, NJ, USA. Vaborbactam was synthesized at The Medicines Company, San Diego, CA. Relebactam, taniborbactam, and relebactam were synthesized at Acme Bioscience.

For assay [2], the system named is K. pneumoniae ATCC BAA-2814 (KP1074), KPC-3. Kind of assay: MIC, reference strain. As to conditions: Klebsiella pneumoniae, ATCCBAA2814; KPC-3; BLI at the fixed concentration in brackets; read-out: MIC. The class given is cell-based. The procedure: as §1
as §2, with “([27]).” for “([27]). Meropenem was purchased from Carbosynth; ceftolozane was synthesized at Acme Bioscience, Palo Alto, CA, USA; all other antibiotics were from Sigma Aldrich. Xeruborbactam was synthesized at Qpex Biopharma, San Diego, CA, USA. Avibactam was purchased from eNovation, Chemicals LLC, Bridgewater, NJ, USA. Vaborbactam was synthesized at The Medicines Company, San Diego, CA. Relebactam, taniborbactam, and relebactam were synthesized at Acme Bioscience.”

The subject of assay [3] is K. pneumoniae ATCC BAA-1705 (KPM1123), KPC-2. Kind of assay: MIC, reference strain. Type of assay: cell-based. To be noted: Klebsiella pneumoniae, ATCCBAA1705; KPC-2; BLI at the fixed concentration in brackets; read-out: MIC. The procedure:
as §1
as §2, with “([27]).” for “([27]). Meropenem was purchased from Carbosynth; ceftolozane was synthesized at Acme Bioscience, Palo Alto, CA, USA; all other antibiotics were from Sigma Aldrich. Xeruborbactam was synthesized at Qpex Biopharma, San Diego, CA, USA. Avibactam was purchased from eNovation, Chemicals LLC, Bridgewater, NJ, USA. Vaborbactam was synthesized at The Medicines Company, San Diego, CA. Relebactam, taniborbactam, and relebactam were synthesized at Acme Bioscience.”

The subject of assay [4] is K. pneumoniae CDC 0135 (KP1291), VIM-1. Kind of assay: MIC, reference strain. Type of assay: cell-based. As to conditions: Klebsiella pneumoniae, BLI at the fixed concentration in brackets, read-out: MIC. The procedure: as §1
as §2, with “([27]).” for “([27]). Meropenem was purchased from Carbosynth; ceftolozane was synthesized at Acme Bioscience, Palo Alto, CA, USA; all other antibiotics were from Sigma Aldrich. Xeruborbactam was synthesized at Qpex Biopharma, San Diego, CA, USA. Avibactam was purchased from eNovation, Chemicals LLC, Bridgewater, NJ, USA. Vaborbactam was synthesized at The Medicines Company, San Diego, CA. Relebactam, taniborbactam, and relebactam were synthesized at Acme Bioscience.”

Assay [5] deals with E. coli CDC 0069 (EC1106), NDM-1. Kind of assay: MIC, reference strain. Type of assay: cell-based. As to conditions: Escherichia coli, BLI at the fixed concentration in brackets, read-out: MIC. The procedure:
as §1
as §2, with “([27]).” for “([27]). Meropenem was purchased from Carbosynth; ceftolozane was synthesized at Acme Bioscience, Palo Alto, CA, USA; all other antibiotics were from Sigma Aldrich. Xeruborbactam was synthesized at Qpex Biopharma, San Diego, CA, USA. Avibactam was purchased from eNovation, Chemicals LLC, Bridgewater, NJ, USA. Vaborbactam was synthesized at The Medicines Company, San Diego, CA. Relebactam, taniborbactam, and relebactam were synthesized at Acme Bioscience.”

In assay [6] the test system is Klebsiella pneumoniae ATCC 700603 (KPM2881), SHV-18. As to the kind of experiment: MIC, reference strain. The class given is cell-based. To be noted: Klebsiella pneumoniae, ATCC700603; SHV-18; BLI at the fixed concentration in brackets; read-out: MIC. How it is done: as §1
as §2, with “([27]).” for “([27]). Meropenem was purchased from Carbosynth; ceftolozane was synthesized at Acme Bioscience, Palo Alto, CA, USA; all other antibiotics were from Sigma Aldrich. Xeruborbactam was synthesized at Qpex Biopharma, San Diego, CA, USA. Avibactam was purchased from eNovation, Chemicals LLC, Bridgewater, NJ, USA. Vaborbactam was synthesized at The Medicines Company, San Diego, CA. Relebactam, taniborbactam, and relebactam were synthesized at Acme Bioscience.”

The test system of assay [7] is P. aeruginosa BAA-3197 (PA5257), KPC-2. As to the kind of experiment: MIC, reference strain. To be noted: Pseudomonas aeruginosa, BAA3197; KPC-2; BLI at the fixed concentration in brackets; read-out: MIC. Type of assay: cell-based.
Assay [8] deals with ESBL-producing Enterobacterales. As to the kind of experiment: organism not typed. The class given is cell-based. As to conditions: ESBL (N = 521); xeruborbactam and vaborbactam fixed 8 mg/L, all other BLIs 4 mg/L.
Assay [9] has as its system carbapenem-resistant Enterobacterales (subset of 507 isolates). As to the kind of experiment: organism not typed. Type of assay: cell-based. To be noted: xeruborbactam and vaborbactam fixed 8 mg/L, all other BLIs 4 mg/L.
The test system of assay [10] is ESBL-producing and carbapenem-resistant Enterobacterales (All, N = 1028). As to the kind of experiment: organism not typed. Type of assay: cell-based. To be noted: All (N = 1028); xeruborbactam and vaborbactam fixed 8 mg/L, all other BLIs 4 mg/L.
In another assay the target is P99 (Enterobacter cloacae, UniProt P05364). As to the kind of experiment: Ki app of β-lactamase inhibition, purified enzyme. Type of assay: biochemical. As to conditions: 10-minute preincubation; nitrocefin substrate; read-out: Ki app. How it is done:
(§3) The majority of purified β-lactamase enzymes used in the study were either expressed and purified internally ([35]) or obtained from Emerald Biostructures (Bainbridge Island, WA, USA). L1 enzyme was purified as described in reference ([36]).
(§4) Enzymes were mixed with BLIs at concentrations varying from 160 to 0.0027 µM in 50-mM Na-phosphate pH7.0, 0.1-mg/mL bovide serum albumin (BSA) (buffer A; 20-µM ZnCl2 was also added for all metalloenzymes) and incubated for 10 minutes at 37°C. Nitrocefin (50 µM) (10 µM for SHV-12) or 100 µM of imipenem (prewarmed at 37°C for 10 minutes) was added, and substrate cleavage profiles were recorded at 37°C at 490 nm every 10 seconds for 10 minutes or at 294 nm every 30 seconds for 1 hour for nitrocefin and imipenem, respectively. […] Ki app values (Ki for metalloenzymes) were calculated by the method of Waley ([37]).

Another assay deals with CTX-M-14 (Escherichia coli, UniProt Q9L5C7). Kind of assay: Ki app of β-lactamase inhibition, purified enzyme. Type of assay: biochemical. As to conditions: 10-minute preincubation; nitrocefin substrate. How it is done:
as §3, §4

The next assay has as its target CTX-M-15 (Escherichia coli, UniProt Q9EXV5). Kind of assay: Ki app of β-lactamase inhibition, purified enzyme. Type of assay: biochemical. To be noted: 10-minute preincubation; nitrocefin substrate. The procedure: as §3, §4
Another assay concerns the target SHV-12 (Klebsiella pneumoniae, UniProt P0AD64, E235K/G234S/L31Q). As to the kind of experiment: Ki app of β-lactamase inhibition, purified enzyme. Type of assay: biochemical. The procedure:
as §3, §4

In a further assay the target is VIM-1 (Pseudomonas aeruginosa, UniProt A0A0F7KYQ8). Kind of assay: Ki of metallo-β-lactamase inhibition, purified enzyme. Type of assay: biochemical. As to conditions: 10-minute preincubation; nitrocefin substrate. How it is done: as §3, §4
The next assay deals with IMP-1 (Serratia marcescens, UniProt P52699). The description is as above. The class given is biochemical. How it is done: as §3, §4
IMP-1, sequence (P52699 19-246 limits assumed): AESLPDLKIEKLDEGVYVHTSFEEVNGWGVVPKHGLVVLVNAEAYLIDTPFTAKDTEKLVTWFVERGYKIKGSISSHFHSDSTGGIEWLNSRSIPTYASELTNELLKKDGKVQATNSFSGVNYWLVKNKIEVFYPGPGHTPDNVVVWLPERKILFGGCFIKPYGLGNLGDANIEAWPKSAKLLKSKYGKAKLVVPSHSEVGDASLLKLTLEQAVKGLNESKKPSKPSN
The next assay deals with NDM-1 (Klebsiella pneumoniae, UniProt C7C422). As to the kind of experiment: biochemical. The procedure:
as §3, §4

NDM-1, sequence (C7C422 29-270 limits assumed): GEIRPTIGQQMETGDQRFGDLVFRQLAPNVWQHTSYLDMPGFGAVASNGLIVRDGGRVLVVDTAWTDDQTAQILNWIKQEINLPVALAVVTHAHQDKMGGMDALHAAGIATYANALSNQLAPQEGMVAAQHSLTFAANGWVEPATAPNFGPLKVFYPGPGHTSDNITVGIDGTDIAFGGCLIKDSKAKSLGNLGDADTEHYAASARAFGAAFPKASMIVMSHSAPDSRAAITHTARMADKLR
P99, sequence (P05364 21-381): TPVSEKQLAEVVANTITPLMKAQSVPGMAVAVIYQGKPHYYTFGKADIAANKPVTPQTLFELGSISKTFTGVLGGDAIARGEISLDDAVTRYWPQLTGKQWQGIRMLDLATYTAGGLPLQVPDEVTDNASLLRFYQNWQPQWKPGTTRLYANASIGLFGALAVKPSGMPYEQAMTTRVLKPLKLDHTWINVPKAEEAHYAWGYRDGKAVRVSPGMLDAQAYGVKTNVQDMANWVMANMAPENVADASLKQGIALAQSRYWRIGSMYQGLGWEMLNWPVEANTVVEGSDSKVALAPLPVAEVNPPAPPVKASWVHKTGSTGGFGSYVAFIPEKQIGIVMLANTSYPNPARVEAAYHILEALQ
CTX-M-14, sequence (Q9L5C7 entry or part of it): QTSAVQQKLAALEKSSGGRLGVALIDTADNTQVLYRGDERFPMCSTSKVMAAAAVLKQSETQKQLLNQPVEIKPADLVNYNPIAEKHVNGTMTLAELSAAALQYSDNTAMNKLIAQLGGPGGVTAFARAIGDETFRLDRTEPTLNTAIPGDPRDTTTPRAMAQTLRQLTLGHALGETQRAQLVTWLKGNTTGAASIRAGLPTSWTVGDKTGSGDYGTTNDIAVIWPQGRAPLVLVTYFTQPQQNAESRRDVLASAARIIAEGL
CTX-M-15, sequence (Q9EXV5 entry or part of it): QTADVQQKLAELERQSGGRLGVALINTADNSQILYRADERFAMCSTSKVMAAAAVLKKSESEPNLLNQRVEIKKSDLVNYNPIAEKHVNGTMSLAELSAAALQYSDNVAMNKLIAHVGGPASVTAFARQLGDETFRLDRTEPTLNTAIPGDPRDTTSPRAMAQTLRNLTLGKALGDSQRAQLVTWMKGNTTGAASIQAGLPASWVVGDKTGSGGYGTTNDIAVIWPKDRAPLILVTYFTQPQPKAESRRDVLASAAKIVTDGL
SHV-12, sequence (P0AD64 22-286 L31Q/G234S/E235K): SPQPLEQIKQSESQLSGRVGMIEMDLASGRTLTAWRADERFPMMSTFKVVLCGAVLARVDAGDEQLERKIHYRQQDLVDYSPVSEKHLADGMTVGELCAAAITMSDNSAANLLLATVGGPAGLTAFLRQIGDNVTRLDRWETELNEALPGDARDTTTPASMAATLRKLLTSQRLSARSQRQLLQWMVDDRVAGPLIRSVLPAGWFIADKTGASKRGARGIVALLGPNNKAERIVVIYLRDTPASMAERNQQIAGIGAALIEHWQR

A word on the MIC: it is the lowest concentration found to suppress growth. For `Cn1c(N)c(NC(=O)NCCN)c[n+]1CC1=C(C(=O)O)N2C(=O)[C@@H](NC(=O)/C(=N\OC(C)(C)C(=O)[O-])c3nsc(N)n3)[C@H]2SC1` [TOL, ceftolozane], the MIC in assay [1] is greater than 64 µg/mL; in assay [2], greater than 64 µg/mL; in assay [3], 64 µg/mL; in assay [4], greater than 64 µg/mL; in [5], greater than 64 µg/mL; in assay [6], 8 µg/mL. Besides, the MIC in assay [7] is 32 µg/mL (≈ 48 µM).

The term MIC50 denotes the lowest concentration that inhibits either 50% of growth or 50% of the strains tested, depending on the study. Broadly, the MIC90 is the lowest concentration that inhibits either 90% of growth or 90% of the strains tested, depending on the study. Consider `C[C@@H](O)[C@H]1C(=O)N2C(C(=O)O)=C(S[C@@H]3CN[C@H](C(=O)Nc4cccc(C(=O)O)c4)C3)[C@H](C)[C@H]12` [ETP], for which the MIC50 in assay [8] was 0.06 µg/mL; in assay [9] (CRE (N = 507)), greater than 32 µg/mL; in assay [9] (KPC (N = 193)), greater than 32 µg/mL; in assay [9] (MBL (N = 168)), greater than 32 µg/mL; in assay [9] (Non-CP CRE (N = 50)) it was greater than 32 µg/mL; in assay [9] (OXA-48-like (N = 96)), greater than 32 µg/mL. In assay [10], the MIC50 was found to be 4 µg/mL. In addition, the MIC90 was 0.5 µg/mL in [8]; greater than 32 µg/mL in assay [9] (CRE (N = 507)); greater than 32 µg/mL in [9] (KPC (N = 193)); greater than 32 µg/mL in [9] (MBL (N = 168)); greater than 32 µg/mL in assay [9] (Non-CP CRE (N = 50)); greater than 32 µg/mL in [9] (OXA-48-like (N = 96)). In addition, in assay [10], the MIC90 is greater than 32 µg/mL.

Consider `CO/N=C(\C(=O)N[C@@H]1C(=O)N2C(C(=O)O)=C(CSc3nc(=O)c(O)nn3C)CS[C@H]12)c1csc(N)n1` [CRO], for which the MIC50 in assay [8], in assay [9] (CRE (N = 507)), in assay [9] (KPC (N = 193)), in assay [9] (MBL (N = 168)), in [9] (Non-CP CRE (N = 50)) and in [9] (OXA-48-like (N = 96)) was greater than 32 µg/mL in each case. For the same compound, in assay [10], the MIC50 is greater than 32 µg/mL. In addition, the MIC90 in [8], in assay [9] (CRE (N = 507)), in [9] (KPC (N = 193)), in [9] (MBL (N = 168)), in [9] (Non-CP CRE (N = 50)) and in assay [9] (OXA-48-like (N = 96)) was greater than 32 µg/mL throughout. In assay [10], the MIC90 was greater than 32 µg/mL.

Turning to `O=C(NC1CCNCC1)[C@@H]1CC[C@@H]2CN1C(=O)N2OS(=O)(=O)O` [Relebactam, relebactam], the Ki at P99 is 14 ± 2 nM; on CTX-M-14, 10 ± 3 nM; at CTX-M-15, 24 ± 1 nM; at SHV-12, 36 ± 6 nM; at VIM-1, greater than 160000 nM; on IMP-1, greater than 160000 nM. This compound also came in with a Ki on NDM-1 greater than 160000 nM. The MIC in assay [1], in [2], in [3], in assay [4], in assay [5] and in assay [6] was greater than 64 µg/mL in each case. Also, the MIC in [7] was greater than 64 µg/mL.
